The values below are quoted from earlier work in patent publication US8629241B2, “Alpha helical mimics, their uses and methods for their production” (The University of Queensland, priority 2004, dated 2014).

This data set has as its target MDM2 (Homo sapiens, UniProt Q00987). To be noted: read-out: dissociation constant; cited from earlier work.

Chain of MDM2 (Q00987 whole entry): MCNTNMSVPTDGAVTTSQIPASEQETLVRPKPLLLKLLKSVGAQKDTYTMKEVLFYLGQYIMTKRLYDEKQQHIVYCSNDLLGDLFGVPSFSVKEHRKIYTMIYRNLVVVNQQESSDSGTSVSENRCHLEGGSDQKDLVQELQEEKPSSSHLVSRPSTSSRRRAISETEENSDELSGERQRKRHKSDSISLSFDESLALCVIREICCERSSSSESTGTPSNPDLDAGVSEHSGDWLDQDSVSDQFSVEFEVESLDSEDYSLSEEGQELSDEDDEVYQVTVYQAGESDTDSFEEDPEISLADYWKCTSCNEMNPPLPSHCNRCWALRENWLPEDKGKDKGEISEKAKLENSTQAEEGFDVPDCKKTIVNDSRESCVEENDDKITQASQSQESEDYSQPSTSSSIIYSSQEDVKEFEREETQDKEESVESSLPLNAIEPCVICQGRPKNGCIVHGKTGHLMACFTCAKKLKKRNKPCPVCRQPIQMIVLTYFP

As to Ac—FR(Dpr-Flu)(Ac6c)(6-Br—W)EEL-NH2, the Kd was 2 nM.
